One experiment concerns the target human cathepsin K (UniProt P43236). Description: Cathepsin K Assay (hrbCat K). The format is biochemical. The following applies: human cathepsin K 0.4 nM, Z-Leu-Arg-AMC 8 μM, pH 5.5, 15 min preincubation; read-out: hrbCat K IP. In outline:
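Human cathepsin K (0.4 nM) in pH 5.5 MES buffer with EDTA, DTT and 10% DMSO was preincubated 15 min at room temperature with compound from a ⅓ dilution series (500-0.025 μM DMSO stocks). Z-Leu-Arg-AMC (8 μM) was then added, and AMC release was followed fluorometrically (Ex 360/Em 460 nm) for 30 min; inhibition was fitted to a dose-response model.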

The next experiment has as its target T1, human cathepsin F (Homo sapiens, UniProt Q9UBX1).
T1 sequence (Q9UBX1 271-484): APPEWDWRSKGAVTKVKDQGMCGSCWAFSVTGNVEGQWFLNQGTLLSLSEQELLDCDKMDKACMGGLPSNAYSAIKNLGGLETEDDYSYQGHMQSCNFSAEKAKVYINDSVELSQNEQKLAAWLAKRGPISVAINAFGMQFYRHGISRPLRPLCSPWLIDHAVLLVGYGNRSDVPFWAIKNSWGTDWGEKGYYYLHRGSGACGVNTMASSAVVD
As to the kind of experiment: Cathepsin F assay (hCat F). The format is biochemical. The conditions noted are these: human cathepsin F 10 nM, Z-Phe-Arg-AMC 8 μM, pH 5.5, 15 min preincubation; read-out: hCat F IP. In outline: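 Human cathepsin F (10 nM) in 50 mM MES pH 5.5, 2.5 mM EDTA, 2.5 mM DTT, 10% DMSO was preincubated 15 min at RT with compounds from a ⅓ DMSO dilution series (500–0.025 μM stocks). Z-Phe-Arg-AMC was added (8 μM as added), and AMC release was read by fluorescence (360/460 nm) for 20 min. Percent inhibition was fitted to a dose-response model.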

As for `CC(C)(C)c1nc(-c2ccc(N3CCS(=O)(=O)CC3)cc2)c([C@@H]2CCC(F)(F)C[C@H]2C(=O)NC2(C#N)CC2)s1` [Example 58, (1R,2R)-2-(2-(tert-butyl)-4-(4-(1,1-dioxidothiomorpholino)phenyl)thiazol-5-yl)-N-(1-cyanocyclopropyl)-5,5-difluorocyclohexane-carboxamide], the IC50 on human cathepsin K came out at 0.67 nM; on human cathepsin F, 72 nM.
Turning to `Cc1nc(-c2ccc(N3CCS(=O)(=O)CC3)cc2)c([C@@H]2CCC(F)(F)C[C@H]2C(=O)NC2(C#N)CC2)s1` [Example 59, (1R,2R)-N-(1-cyanocyclopropyl)-2-(4-(4-(1,1-dioxidothiomorpholino)phenyl)-2-methylthiazol-5-yl)-5,5-difluorocyclohexane-carboxamide], the IC50 on human cathepsin K was determined as 0.51 nM; on human cathepsin F, 389 nM.
`N#CC1(NC(=O)[C@@H]2CCCC[C@H]2c2sc(C(F)(F)F)nc2-c2ccc(N3CCS(=O)(=O)CC3)cc2)CC1` [Example 60, (1R,2R)-N-(1-cyanocyclopropyl)-2-(4-(4-(1,1-dioxidothiomorpholino)phenyl)-2-(trifluoromethyl)thiazol-5-yl)cyclohexanecarboxamide]: the IC50 on human cathepsin K turned out to be 4.37 nM; on human cathepsin F, 3290 nM.
The matching figures for `N#CC1(NC(=O)[C@@H]2CCCC[C@H]2c2oc(-c3ccc(OC(F)(F)F)cc3)nc2-c2ccc(N3CCS(=O)(=O)CC3)cc2)CC1` [Example 61, (1R,2R)-N-(1-cyanocyclopropyl)-2-(4-(4-(1,1-dioxidothiomorpholino)phenyl)-2-(4-(trifluoromethoxy)phenyl)oxazol-5-yl)cyclohexanecarboxamide]: 1.36 nM and 511 nM.
With `N#CC1(NC(=O)[C@@H]2CCCC[C@H]2c2oc(-c3cccc(F)c3)nc2-c2ccc(N3CCS(=O)(=O)CC3)cc2)CC1` [Example 62, (1R,2R)-N-(1-cyanocyclopropyl)-2-(4-(4-(1,1-dioxidothiomorpholino)phenyl)-2-(3-fluorophenyl)oxazol-5-yl)cyclohexanecarboxamide], the IC50 at human cathepsin K is 0.92 nM; at human cathepsin F it was 492 nM.
The matching figures for `N#CC1(NC(=O)[C@@H]2CCCC[C@H]2c2oc(-c3ccccc3OC(F)(F)F)nc2-c2ccc(N3CCS(=O)(=O)CC3)cc2)CC1` [Example 63, (1R,2R)-N-(1-cyanocyclopropyl)-2-(4-(4-(1,1-dioxidothiomorpholino)phenyl)-2-(2-(trifluoromethoxy)phenyl)oxazol-5-yl)cyclohcxanecarboxamide]: 1.23 nM and 639 nM.
Consider `N#CC1(NC(=O)[C@@H]2CCCC[C@H]2c2oc(-c3ccc(OC(F)F)cc3)nc2-c2ccc(N3CCS(=O)(=O)CC3)cc2)CC1` [Example 64, (1R,2R)-N-(1-cyanocyclopropyl)-2-(2-(4-(difluoromethoxy)phenyl)-4-(4-(1,1-dioxidothiomorpholino)phenyl)oxazol-5-yl)cyclohexanecarboxamide], for which the IC50 stood at 1.04 nM at human cathepsin K and 573 nM at human cathepsin F.
Take `N#CC1(NC(=O)[C@@H]2CCCC[C@H]2c2oc(-c3ccc(C(F)(F)F)cc3)nc2-c2ccc(N3CCS(=O)(=O)CC3)cc2)CC1` [Example 65, (1R,2R)-N-(1-cyanocyclopropyl)-2-(4-(4-(1,1-dioxidothiomorpholino)phenyl)-2-(4-(trifluoromethyl)phenyl)oxazol-5-yl)cyclohexanecarboxamide]: the figures for the IC50 on human cathepsin K and at human cathepsin F were 1.3 nM and 825 nM, respectively.
In the same order, the values of `N#CC1(NC(=O)[C@@H]2CCCC[C@H]2c2oc(-c3cccc(C(F)(F)F)c3)nc2-c2ccc(N3CCS(=O)(=O)CC3)cc2)CC1` [Example 66, (1R,2R)-N-(1-cyanocyclopropyl)-2-(4-(4-(1,1-dioxidothiomorpholino)phenyl)-2-(3-(trifluoromethyl)phenyl)oxazol-5-yl)cyclohexanecarboxamide] are 1.21 nM and 454 nM.
For the compound `N#CC1(NC(=O)[C@@H]2CCCC[C@H]2c2oc(-c3ccccc3F)nc2-c2ccc(N3CCS(=O)(=O)CC3)cc2)CC1` [Example 67, (1R,2R)-N-(1-cyanocyclopropyl)-2-(4-(4-(1,1-dioxidothiomorpholino)phenyl)-2-(2-fluorophenyl)oxazol-5-yl)cyclohexanecarboxamide], the results for the IC50 on human cathepsin K and at human cathepsin F were 0.57 nM and 619 nM, respectively.
In the same order, the values of `N#CC1(NC(=O)[C@@H]2CCCC[C@H]2c2oc(-c3cccc(OC(F)F)c3)nc2-c2ccc(N3CCS(=O)(=O)CC3)cc2)CC1` [Example 68, (1R,2R)-N-(1-cyanocyclopropyl)-2-(2-(3-(difluoromethoxy)phenyl)-4-(4-(1,1-dioxidothiomorpholino)phenyl)oxazol-5-yl)cyclohexanecarboxamide] are 1.04 nM and 502 nM.
For `N#CC1(NC(=O)[C@@H]2CCCC[C@H]2c2oc(-c3ccccc3C(F)(F)F)nc2-c2ccc(N3CCS(=O)(=O)CC3)cc2)CC1` [Example 69, (1R,2R)-N-(1-cyanocyclopropyl)-2-(4-(4-(1,1-dioxidothiomorpholino)phenyl)-2-(2-(trifluoromethyl)phenyl)oxazol-5-yl)cyclohexanecarboxamide], the IC50 on human cathepsin K was 2.94 nM; on human cathepsin F it was 827 nM.
The matching figures for `COc1ccc(-c2nc(-c3ccc(N4CCS(=O)(=O)CC4)cc3)c([C@@H]3CCCC[C@H]3C(=O)NC3(C#N)CC3)o2)cc1` [Example 70]: 1.84 nM and 734 nM.
Consider `COc1cccc(-c2nc(-c3ccc(N4CCS(=O)(=O)CC4)cc3)c([C@@H]3CCCC[C@H]3C(=O)NC3(C#N)CC3)o2)c1` [Example 71, (1R,2R)-N-(1-cyanocyclopropyl)-2-(4-(4-(1,1-dioxidothiomorpholino)phenyl)-2-(3-methoxyphenyl)oxazol-5-yl)cyclohexanecarboxamide], for which the IC50 on human cathepsin K amounted to 1.59 nM; on human cathepsin F, 511 nM.
In the case of `COc1ccccc1-c1nc(-c2ccc(N3CCS(=O)(=O)CC3)cc2)c([C@@H]2CCCC[C@H]2C(=O)NC2(C#N)CC2)o1` [Example 72, (1R,2R)-N-(1-cyanocyclopropyl)-2-(4-(4-(1,1-dioxidothiomorpholino)phenyl)-2-(2-methoxyphenyl)oxazol-5-yl)cyclohexanecarboxamide], the IC50 at human cathepsin K worked out at 1.49 nM; on human cathepsin F it was 750 nM.
In the same order, the values of `Cc1ncc(-c2nc(-c3ccc(N4CCS(=O)(=O)CC4)cc3)c([C@@H]3CCCC[C@H]3C(=O)NC3(C#N)CC3)o2)s1` [Example 73, (1R,2R)-N-(1-cyanocyclopropyl)-2-(4-(4-(1,1-dioxidothiomorpholino)phenyl)-2-(2-methylthiazol-5-yl)oxazol-5-yl)cyclohexanecarboxamide] are 1.42 nM and 1490 nM.
In the case of `N#Cc1ccc(-c2nc(-c3ccc(N4CCS(=O)(=O)CC4)cc3)c([C@@H]3CCCC[C@H]3C(=O)NC3(C#N)CC3)o2)cc1` [Example 74, (1R,2R)-N-(1-cyanocyclopropyl)-2-(2-(4-cyanophenyl)-4-(4-(1,1-dioxidothiomorpholino)phenyl)oxazol-5-yl)cyclohexanecarboxamide], the figures for the IC50 at human cathepsin K and on human cathepsin F were 1.46 nM and 645 nM, respectively.
In the same order, the values of `N#CC1(NC(=O)[C@@H]2CCCC[C@H]2c2oc(-c3ccccc3Cl)nc2-c2ccc(N3CCS(=O)(=O)CC3)cc2)CC1` [Example 75, (1R,2R)-2-(2-(2-chlorophenyl)-4-(4-(1,1-dioxidothiomorpholino)phenyl)oxazol-5-yl)-N-(1-cyanocyclopropyl) cyclohexanecarboxamide] are 2.06 nM and 865 nM.

Values taken from patent US9458181B2, “Cathepsin cysteine protease inhibitors” (Merck Sharp & Dohme Corp., priority 2013, dated 2016).
